Experimental data: patent publication US10766869B2, “Triazoles for the treatment of demyelinating dieases” (Vertex Pharmaceuticals Incorporated, priority 2015, dated 2020)
Read-outs that look alike come from different tables or passages of the source.

System: primary rat mixed cortical cells
Test: In vitro myelination assay (MBP positive myelin strands, fold myelin pixels above background)
Assay type: cell-based
Settings: Rattus norvegicus; for fold induction at 1 µM: 1.0 μM compound; for fold induction at 10 µM: 10.0 μM compound
Procedure, shortened: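 Fourteen-day treatment of primary P1 rat mixed cortical cultures, re-dosed at days 6 and 10, at 1.0 μM and 10.0 μM. MBP immunofluorescence was imaged at 10× and myelin strands quantified by software, normalised to untreated wells as fold above background.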

[1] = relative to baseline of no added compound, read-out: Fold myelin pixels above background
[2] = relative to baseline of no added compound, read-out: Fold myelin pixels above background, 1.0 μM
[3] = relative to baseline of no added compound, read-out: Fold myelin pixels above background, 10.0 μM
[4] = read-out: Fold myelin pixels above background relative to baseline of no added compound

CC(=O)N1CCC(Oc2cc(C)cc(Nc3ncn(-c4ccc(F)c(F)c4)n3)c2)CC1 [Compound 626, 1-[4-[3-[[1-(3,4-difluorophenyl)-1,2,4-triazol-3-yl]amino]-5-methyl-phenoxy]-1-piperidyl]ethanone] was tested, and the fold induction at 1 µM [1] was 10 to 100 and the fold induction at 10 µM [1] was ≤ 1.
Compound COC1CCCN(c2cc(C)cc(Nc3ncn(-c4cc(F)cc(F)c4)n3)n2)C1 (stereo not drawn) [Compound 764, N-[1-(3,5-difluorophenyl)-1,2,4-triazol-3-yl]-6-(3-methoxy-1-piperidyl)-4-methyl-pyridin-2-amine] has a fold induction at 1 µM [1] of 1 to 10 and a fold induction at 10 µM [1] of 1 to 10.
Cc1cc(N2CC(N3CCOCC3)C2)cc(Nc2ncn(-c3cc(F)cc(F)c3)n2)c1C [Compound 739, 1-(3,5-difluorophenyl)-N-[2,3-dimethyl-5-(3-morpholinoazetidin-1-yl)phenyl]-1,2,4-triazol-3-amine] was tested, and the fold induction at 1 µM [1] was 10 to 100 and the fold induction at 10 µM [1] was 10 to 100.
In the case of CCc1cc(Nc2ncn(-c3ccc(C)cc3)n2)cc(N2CCN(C3COC3)CC2)c1 [Compound 31, N-[3-ethyl-5-[4-(oxetan-3-yl)piperazin-1-yl]phenyl]-1-(p-tolyl)-1,2,4-triazol-3-amine], the fold induction at 1 µM [2] is reported as 100 to 1000 and the fold induction at 10 µM [3] is reported as 100 to 1000.
[2H]c1nc(Nc2cc(C)cc(N3CCN(C4COC4)CC3)c2)nn1-c1cc(F)cc(F)c1 [Compound 1080, 5-deuterio-1-(3,5-difluorophenyl)-N-[3-methyl-5-[4-(oxetan-3-yl)piperazin-1-yl]phenyl]-1,2,4-triazol-3-amine] showed a fold induction at 1 µM [4] of 10 to 100 and a fold induction at 10 µM [4] of 10 to 100.
In the case of Cc1cc(-n2cnc(Nc3cc(C4CC4)cc(N4CCN(C5COC5)CC4)c3)n2)ncn1 [Compound 302, N-[3-cyclopropyl-5-[4-(oxetan-3-yl)piperazin-1-yl]phenyl]-1-(6-methylpyrimidin-4-yl)-1,2,4-triazol-3-amine], the fold induction at 1 µM [2] is reported as 1000 to 10000 and the fold induction at 10 µM [3] is reported as 1000 to 10000.
Cc1cc(Nc2ncn(-c3ccc(F)c(F)c3)n2)cc(OCC2CC(F)(F)C2)c1 [Compound 640, N-[3-[(3,3-difluorocyclobutyl)methoxy]-5-methyl-phenyl]-1-(3,4-difluorophenyl)-1,2,4-triazol-3-amine] showed a fold induction at 1 µM [1] of 10 to 100 and a fold induction at 10 µM [1] of 1 to 10.
Cc1cc(Nc2ncn(-c3cc(F)cc(F)c3)n2)cc(N2CCC(N3CCCC3=O)CC2)c1 [Compound 161, 1-[1-[3-[[1-(3,5-difluorophenyl)-1,2,4-triazol-3-yl]amino]-5-methyl-phenyl]-4-piperidyl]pyrrolidin-2-one] gave a fold induction at 1 µM [2] of 10 to 100 and a fold induction at 10 µM [3] of 10 to 100.
For Cc1cc(Nc2ncn(-c3ccccc3)n2)cc(C2CCN(C3CC3)CC2)c1 [Compound 120, N-[3-(1-cyclopropyl-4-piperidyl)-5-methyl-phenyl]-1-phenyl-1,2,4-triazol-3-amine], the fold induction at 1 µM [2] was 1000 to 10000 and the fold induction at 10 µM [3] was ≤ 1.
Work on FC(F)(F)c1cc(Nc2ncn(-c3cnccn3)n2)cc(N2CC3CC(C2)O3)c1 [Compound 513, N-[3-(6-oxa-3-azabicyclo[3.1.1]heptan-3-yl)-5-(trifluoromethyl)phenyl]-1-pyrazin-2-yl-1,2,4-triazol-3-amine] yielded a fold induction at 1 µM [1] of 100 to 1000 and a fold induction at 10 µM [1] of 100 to 1000.
With CCc1cc(Nc2ncn(-c3cccc(C(F)(F)F)c3)n2)cc(N2CCN(C3COC3)CC2)c1 [Compound 218, N-[3-ethyl-5-[4-(oxetan-3-yl)piperazin-1-yl]phenyl]-1-[3-(trifluoromethyl)phenyl]-1,2,4-triazol-3-amine] the fold induction at 1 µM [2] was 100 to 1000 and the fold induction at 10 µM [3] was ≤ 1.
With Fc1cc(F)cc(-n2cnc(Nc3cc(C(F)(F)F)cc(N4CCOCC4)n3)n2)c1 [Compound 674, N-[1-(3,5-difluorophenyl)-1,2,4-triazol-3-yl]-6-morpholino-4-(trifluoromethyl)pyridin-2-amine] the fold induction at 1 µM [1] was 1 to 10 and the fold induction at 10 µM [1] was 1 to 10.
Cc1cc(Nc2ncn(-c3cc(F)cc(F)c3)n2)cc(N[C@H]2C[C@H](N3CCOCC3)C2)c1 (single isomer, unassigned) [Compound 649, N1-[1-(3,5-difluorophenyl)-1,2,4-triazol-3-yl]-5-methyl-N3-(3-morpholinocyclobutyl)benzene-1,3-diamine] was tested, and the fold induction at 1 µM [1] was 10 to 100 and the fold induction at 10 µM [1] was ≤ 1.
With OCc1cc(Nc2ncn(-c3ccc(F)c(F)c3)n2)nc(N2CCN(C3COC3)CC2)c1 [Compound 713, [2-[[1-(3,4-difluorophenyl)-1,2,4-triazol-3-yl]amino]-6-[4-(oxetan-3-yl)piperazin-1-yl]-4-pyridyl]methanol] the fold induction at 1 µM [1] was 10 to 100 and the fold induction at 10 µM [1] was 10 to 100.
In the case of Cc1cc(Nc2ncn(-c3cc(F)cc(F)c3)n2)cc(N(C)CCN2CCOCC2)c1 [Compound 738, N3-[1-(3,5-difluorophenyl)-1,2,4-triazol-3-yl]-N1,5-dimethyl-N1-(2-morpholinoethyl)benzene-1,3-diamine], the fold induction at 1 µM [1] is reported as 10 to 100 and the fold induction at 10 µM [1] is reported as ≤ 1.
Cc1cc(Nc2ncn(-c3cc(F)cc(F)c3)n2)cc(NC(C)C2CC2)c1 (stereo not drawn) [Compound 1059, N1-(1-cyclopropylethyl)-N3-[1-(3,5-difluorophenyl)-1,2,4-triazol-3-yl]-5-methyl-benzene-1,3-diamine] was tested, and the fold induction at 1 µM [4] was 10 to 100 and the fold induction at 10 µM [4] was ≤ 1.
With CCOCCN1CCN(c2cc(C)cc(Nc3ncn(-c4cc(F)cc(F)c4)n3)c2)CC1 [Compound 973, 1-(3,5-difluorophenyl)-N-[3-[4-(2-ethoxyethyl)piperazin-1-yl]-5-methyl-phenyl]-1,2,4-triazol-3-amine] the fold induction at 1 µM [4] was 10 to 100 and the fold induction at 10 µM [4] was ≤ 1.
In the case of Fc1cc(F)cc(-n2cnc(Nc3cc(N4CCN(C5COC5)CC4)cc(N4CCN(C5COC5)CC4)n3)n2)c1 [Compound 726, N-[1-(3,5-difluorophenyl)-1,2,4-triazol-3-yl]-4,6-bis[4-(oxetan-3-yl)piperazin-1-yl]pyridin-2-amine], the fold induction at 1 µM [1] is reported as 1 to 10 and the fold induction at 10 µM [1] is reported as 1 to 10.
With Cc1cc(Nc2ncn(-c3cccc(F)c3)n2)cc(C2COC2)c1 [Compound 147, 1-(3-fluorophenyl)-N-[3-methyl-5-(oxetan-3-yl)phenyl]-1,2,4-triazol-3-amine] the fold induction at 1 µM [2] was 1000 to 10000 and the fold induction at 10 µM [3] was 10 to 100.
With Fc1cc(Nc2ncn(-c3ccc(F)c(F)c3)n2)cc(N2CCOCC2)c1 [Compound 440, 1-(3,4-difluorophenyl)-N-(3-fluoro-5-morpholino-phenyl)-1,2,4-triazol-3-amine] the fold induction at 1 µM [1] was 10 to 100 and the fold induction at 10 µM [1] was 10 to 100.
For c1ccc(-n2cnc(Nc3cc(C4CCOCC4)cc(N4CCOCC4)c3)n2)cc1 [Compound 251, N-(3-morpholino-5-tetrahydropyran-4-yl-phenyl)-1-phenyl-1,2,4-triazol-3-amine], the fold induction at 1 µM [2] was 100 to 1000 and the fold induction at 10 µM [3] was 1 to 10.
In the case of Cc1cc(Nc2ncn(-c3ccc(F)c(F)c3)n2)cc(OCCn2cccn2)c1 [Compound 698, 1-(3,4-difluorophenyl)-N-[3-methyl-5-(2-pyrazol-1-ylethoxy)phenyl]-1,2,4-triazol-3-amine], the fold induction at 1 µM [1] is reported as 10 to 100 and the fold induction at 10 µM [1] is reported as 10 to 100.
Work on Fc1ccc(-n2cnc(Nc3cc(C(F)(F)F)cc(N4CCN(C5COC5)CC4)n3)n2)cc1F [Compound 546, N-[1-(3,4-difluorophenyl)-1,2,4-triazol-3-yl]-6-[4-(oxetan-3-yl)piperazin-1-yl]-4-(trifluoromethyl)pyridin-2-amine] yielded a fold induction at 1 µM [1] of 1 to 10 and a fold induction at 10 µM [1] of 10 to 100.
For Cc1cc(Nc2ncn(-c3cc(F)cc(F)c3)n2)cc(N2CCN(C(=O)C(F)(F)F)CC2)c1 [Compound 352, 1-[4-[3-[[1-(3,5-difluorophenyl)-1,2,4-triazol-3-yl]amino]-5-methyl-phenyl]piperazin-1-yl]-2,2,2-trifluoro-ethanone], the fold induction at 1 µM [2] was ≤ 1 and the fold induction at 10 µM [3] was 100 to 1000.
Work on Cc1cc(Nc2ncn(-c3cc(C)ncn3)n2)cc(N2CCN(C3COC3)CC2)c1 [Compound 111, N-[3-methyl-5-[4-(oxetan-3-yl)piperazin-1-yl]phenyl]-1-(6-methylpyrimidin-4-yl)-1,2,4-triazol-3-amine] yielded a fold induction at 1 µM [2] of 10 to 100 and a fold induction at 10 µM [3] of 100 to 1000.
Cc1cc(Nc2ncn(-c3cc(F)cc(F)c3)n2)c(F)c(OC2CCOC2)c1 (stereo not drawn) [Compound 856, 1-(3,5-difluorophenyl)-N-(2-fluoro-5-methyl-3-tetrahydrofuran-3-yloxy-phenyl)-1,2,4-triazol-3-amine] was tested, and the fold induction at 1 µM [4] was 10 to 100 and the fold induction at 10 µM [4] was ≤ 1.
With Cc1cc(Nc2ncn(-c3cc(F)cc(F)c3)n2)cc(N2CCN3C(=O)CCC3C2)c1 (stereo not drawn) [Compound 561, 2-[3-[[1-(3,5-difluorophenyl)-1,2,4-triazol-3-yl]amino]-5-methyl-phenyl]-1,3,4,7,8,8a-hexahydropyrrolo[1,2-a]pyrazin-6-one] the fold induction at 1 µM [1] was 100 to 1000 and the fold induction at 10 µM [1] was 10 to 100.
With CCc1cc(Nc2ncn(-c3ncncc3F)n2)cc(N2CCN(C3COC3)CC2)c1 [Compound 50, N-[3-ethyl-5-[4-(oxetan-3-yl)piperazin-1-yl]phenyl]-1-(5-fluoropyrimidin-4-yl)-1,2,4-triazol-3-amine] the fold induction at 1 µM [2] was ≤ 1 and the fold induction at 10 µM [3] was 1000 to 10000.
In the case of Cc1cc(Nc2ncn(-c3cc(F)cc(F)c3)n2)cc(N2CCOC(CN(C)C)C2)c1 (stereo not drawn) [Compound 1018, 1-(3,5-difluorophenyl)-N-[3-[2-[(dimethylamino)methyl]morpholin-4-yl]-5-methyl-phenyl]-1,2,4-triazol-3-amine], the fold induction at 1 µM [4] is reported as 10 to 100 and the fold induction at 10 µM [4] is reported as ≤ 1.
COCCN1CCN(c2cc(C)cc(Nc3ncn(-c4cc(F)cc(F)c4)n3)c2)CC1C (stereo not drawn) [Compound 1011, 1-(3,5-difluorophenyl)-N-[3-[4-(2-methoxyethyl)-3-methyl-piperazin-1-yl]-5-methyl-phenyl]-1,2,4-triazol-3-amine] was tested, and the fold induction at 1 µM [4] was 10 to 100 and the fold induction at 10 µM [4] was ≤ 1.
